Key:
[1] = Changes in body weight of rats in CdCl2-induced hepatic toxicity study; type: in vivo, rat; details: male Wistar rats, n=8 per group; AEO 250 mg/kg 2 hours before saline or CdCl2 6.5 mg/kg i.p., daily for 7 days; mean ± SD
Description: (§1) To study the hepatic protective activity of Achillea millefolium essential oil (AEO) on CdCl2-induced hepatic toxicity, male Wistar rats (weighing, 180 g-200 g) were purchased from the Experimental Animal Research Centre, King Saud University, Riyadh, KSA. The animals were randomly divided into four groups (n=8 per group). For Group I (the Control group), the animals were pre-administered with 0.9% NaCl (physiological saline), 2 hours before the injection of 0.9% NaCl (physiological saline) i.p., daily for 7 days. For Group II (the CdCl2 group), the animals were pre-administered with 0.9% NaCl (physiological saline) 2 hours before injection of 6.5 mg/kg CdCl2 i.p. daily for 7 days. For Group III (the AEO group), the animals were pre-administered with 250 mg/kg AEO 2 hours before the injection of 0.9% NaCl (physiological saline) i.p. daily for 7 days. For Group IV (the AEO+CdCl2 group), the animals were pre-administered with 250 mg/kg AEO 2 hours before the injection of 6.5 mg/kg CdCl2 i.p. daily for 7 days. Twenty-four hours after the last treatment, the animals were killed and the liver was quickly removed and weighed.

[2] = Determination of Cd concentration in liver tissue; type: in vivo, rat
Description: as §1
Cd concentration was measured using conventional methods. Liver tissue was weighed and dried in an oven for 4 hours at 250° C. […] Cd concentrations were determined by spectrophotometry at […]. The Cd concentrations are expressed as μg/g of wet liver tissue.

[3] = system: CdCl2-induced hepatic toxicity; test: Liver function test (serum enzymes, ELISA kits); type: in vivo, rat; details: rats, Cd vs control group, AEO 250 mg/kg + CdCl2 vs CdCl2 group
Description: as §1
The activities of alanine transaminase (ALT), aspartate aminotransferase (AST), alkaline phosphatase (ALP), lactate dehydrogenase (LDH) enzymes and γ-glutamyltransferase1 (γGTT1) were determined using ELISA kits.

[4] = system: CdCl2-induced hepatic toxicity; test: Determination of hepatic oxidative stress markers; type: in vivo, rat; details: rats, CdCl2 vs control, AEO 250 mg/kg + CdCl2 vs CdCl2 group
Description: as §1
(§2) Parts of the frozen liver samples (50 mg) were homogenized in 1 ml ice-cold phosphate buffer saline containing a protease/phosphatase inhibitor cocktail. The homogenates were centrifuged at 10,000×g for 15 minutes at 4° C. and the supernatants were isolated to new tubes. The tubes were kept at −20° C. until further biochemical analysis.
Lipid peroxidation was assessed according to the amount of malondialdehyde (MDA). The activities of catalase, superoxide dismutase (SOD) glutathione peroxidase (GSH-Px) and glutathione reductase (GSH-R) were estimated using kits, according to manufacturer protocol.

Nrf2/HO-1/NQO1 = test: Hepatic Nrf2 pathway gene expression (qPCR); type: in vivo; details: rat liver, qPCR relative to β-actin, Cd vs control, AEO + CdCl2 vs CdCl2 group
Description: as §1, with “Twenty-four hours after the last treatment, the animals were killed and the liver was quickly removed and weighed.” left out
Gene expression for the Nrf2 pathway, including nuclear factor erythroid 2-related factor 2 (Nrf2), hemeoxygenase-1 (HO-1), NAD(P)H: quinone oxidoreductase 1 (NQO1) and Nuclear factor kappa B (NFκB) were quantified via real-time PCR (qPCR) consuming the primers' sequences, shown in Table 1, in agreement with the method described elsewhere. Briefly, RNA was isolated and purified using a Trizol reagent kit (Invitrogen, Carlsbad, CA, USA), then a reverse transcription polymerase chain reaction (RT-PCR) kit (TaKaRa, Kusatsu, Shiga, Japan) following the manufacturer's procedures. qPCR was applied using a SYBR ExScript RT-PCR kit, and quantification examinations were accomplished via an Opticon-2 Real-4 time PCR reactor (MJ Research, Capital Court, Reno, NV, USA). qPCR results were obtained using Step PE Applied Biosystems (Waltham, MA, USA) software. Relative gene expression data were calculated as mentioned earlier by the Livak and Schmittgen method (2-ΔΔCq2) and presented as a fold change. Target gene expressions were assessed and related to the reference gene (β-actin).

NFκB = test: Hepatic NFκB gene expression (qPCR); type: in vivo; details: rat liver, qPCR relative to β-actin; Cd vs control; AEO with Cd vs Cd alone group; FIG. 3D
Description: To study the hepatic protective activity of Achillea millefolium essential oil (AEO) on CdCl2-induced hepatic toxicity, male Wistar rats (weighing, 180 g-200 g) were purchased from the Experimental Animal Research Centre, King Saud University, Riyadh, KSA. The animals were randomly divided into four groups (n=8 per group). For Group I (the Control group), the animals were pre-administered with 0.9% NaCl (physiological saline), 2 hours before the injection of 0.9% NaCl (physiological saline) i.p., daily for 7 days. For Group II (the CdCl2 group), the animals were pre-administered with 0.9% NaCl (physiological saline) 2 hours before injection of 6.5 mg/kg CdCl2 i.p. daily for 7 days. […]
Gene expression for the Nrf2 pathway, including nuclear factor erythroid 2-related factor 2 (Nrf2), hemeoxygenase-1 (HO-1), NAD(P)H: quinone oxidoreductase 1 (NQO1) and Nuclear factor kappa B (NFκB) were quantified via real-time PCR (qPCR) consuming the primers' sequences, shown in Table 1, in agreement with the method described elsewhere. […] Relative gene expression data were calculated as mentioned earlier by the Livak and Schmittgen method (2-ΔΔCq2) and presented as a fold change. Target gene expressions were assessed and related to the reference gene (β-actin).

[5] = system: CdCl2-induced hepatic toxicity; test: Determination of liver inflammatory markers; type: in vivo, rat; details: rats, CdCl2 vs control, AEO 250 mg/kg + CdCl2 vs CdCl2 group
Description: as §1, §2
Inflammation markers including tumor necrosis factor alpha (TNF-α), interleukin 1β (IL-1β), intracellular adhesion molecule-1 (ICAM-1) and myeloperoxidase (MPO) were measured according to the manufacturer protocol of the Kit.

[Cl][Cd][Cl] [CdCl2]
Final weight [1]: 190.84 ± 4.41
Cd concentration (μg/g liver tissue) ([2]; male Wistar rats, AEO 250 mg/kg 2 hours before saline or CdCl2 6.5 mg/kg i.p., daily for 7 days, liver 24 h after last treatment, mean ± SD): 0.74 ± 0.023 μg/g liver tissue
Concentration of Cd in hepatic tissue (change) ([2]; rats, CdCl2 vs control group, AEO prior to CdCl2 vs CdCl2 group, p<0.05): significantly increased
serum ALT level ([3]; FIG. 1A): increase
serum AST level ([3]; FIG. 1B): increase
serum ALP level ([3]; FIG. 1C): increase
serum LDH level ([3]; FIG. 1D): increase
serum γGTT1 level ([3]; FIG. 1E): increase
hepatic MDA level (lipid peroxidation) ([4]; FIG. 2A): augmented
hepatic GSH-Px activity ([4]; FIG. 2B): considerably declined
hepatic GSH-R activity ([4]; FIG. 2C): considerably declined
hepatic SOD activity ([4]; FIG. 2D): considerably declined
hepatic CAT (catalase) activity ([4]; FIG. 2E): considerably declined
Nrf2 mRNA expression level (Nrf2/HO-1/NQO1; FIG. 3A): decreased
HO-1 mRNA expression level (Nrf2/HO-1/NQO1; FIG. 3B): decreased
NQO1 mRNA expression level (Nrf2/HO-1/NQO1; FIG. 3C): decreased
NFκB mRNA expression level (NFκB): significantly augmented
TNF-α hepatic level ([5]; FIG. 4A): augmented
IL-1β hepatic level ([5]; FIG. 4B): augmented
MPO hepatic level ([5]; FIG. 4C): augmented
ICAM-1 hepatic level ([5]; FIG. 4D): augmented

Source: patent publication US12115202B1, “Method of preventing cadmium-induced liver toxicity using a plant product derived from Achillea millefolium L” (KING FAISAL UNIVERSITY, priority 2024, dated 2024)
